{
  "source": "PubChem BioAssay AID1259409",
  "about": "(Chemical Carcinogenesis Research Information System (CCRIS), 2018)",
  "origin": "cited, not measured here",
  "tested_on": "rodent chemically induced tumor inhibition, incidence and multiplicity",
  "assay": "CCRIS tumor inhibitor studies",
  "details": "Dose [Inhibitor]: 0; for outcome: Target Tissue: Type of Lesion: URINARY BLADDER: SQUAMOUS CELL CARCINOMA",
  "data": [
    {"smiles": "COC(=O)c1cc(O)c(O)c(O)c1", "values": [
      {"measurement": "tumour outcome (control, treated, inhibition, significance)", "setting": "Carcinogen: 7,12-DIMETHYLBENZ[A]ANTHRACENE, 57-97-6, 20 UMOL IN 0.4 ML ACETONE 20 MIN PRIOR TO EACH PROMOTER DOSE (STUDY DURATION: 47 WK), Route [Inhibitor]: DERMAL, Species: MOUSE, Strain/Sex: CF-1/FEMALE, Target Tissue: Type of Lesion: SKIN: CARCINOMA, Dose [Carcinogen]: 100 NMOL IN 0.2 ML ACETONE ONCE", "value": "67%, 24%, 64%, not calculated"},
      {"measurement": "tumour outcome (control, treated, inhibition, significance)", "setting": "Carcinogen: 7,12-DIMETHYLBENZ[A]ANTHRACENE, 57-97-6, 20 UMOL IN 0.4 ML ACETONE 20 MIN PRIOR TO EACH PROMOTER DOSE (STUDY DURATION: 47 WK), Route [Inhibitor]: DERMAL, Species: MOUSE, Strain/Sex: CF-1/FEMALE, Target Tissue: Type of Lesion: SKIN: PAPILLOMA, Dose [Carcinogen]: 100 NMOL IN 0.2 ML ACETONE ONCE", "value": "94%, 84%, 11%, p<0.025"}
    ]},
    {"smiles": "CCCCCCCCCCCCCCCCCCCCCCCCCC(=O)N[C@@H](CO[C@H]1O[C@H](CO)[C@H](O)[C@H](O)[C@H]1O)[C@H](O)[C@H](O)CCCCCCCCCCCCCC", "values": [
      {"measurement": "outcome", "setting": "Carcinogen: N-BUTYL-N-(4-HYDROXYBUTYL)NITROSAMINE, 3817-11-6, 0.1 UG/KG ONCE/WK FOR 17 WK BY INTRAVESICULAR INSTILLATION UNDER ANESTHESIA, BEGINNING 1 WK AFTER INITIATION PERIOD (, Route [Inhibitor]: INTRAVESICULAR, Species: MOUSE, Strain/Sex: C57BL6/FEMALE, Dose [Carcinogen]: 0.05% IN DRINKING WATER FOR 8 WK", "value": "0/13 (0%), 0/13 (0%), not significant"},
      {"measurement": "outcome", "setting": "Carcinogen: N-BUTYL-N-(4-HYDROXYBUTYL)NITROSAMINE, 3817-11-6, 10 UG/KG ONCE/WK FOR 17 WK BY INTRAVESICULAR INSTILLATION UNDER ANESTHESIA, BEGINNING 1 WK AFTER INITIATION PERIOD (S, Route [Inhibitor]: INTRAVESICULAR, Species: MOUSE, Strain/Sex: C57BL6/FEMALE, Dose [Carcinogen]: 0.05% IN DRINKING WATER FOR 8 WK", "value": "0/13 (0%), 2/11 (18.2%), not significant"},
      {"measurement": "tumour outcome (control, treated, inhibition, significance)", "setting": "Carcinogen: N-BUTYL-N-(4-HYDROXYBUTYL)NITROSAMINE, 3817-11-6, 10 UG/KG ONCE/WK FOR 17 WK BY INTRAVESICULAR INSTILLATION UNDER ANESTHESIA, BEGINNING 1 WK AFTER INITIATION PERIOD (S, Route [Inhibitor]: INTRAVESICULAR, Species: MOUSE, Strain/Sex: C57BL6/FEMALE, Target Tissue: Type of Lesion: URINARY BLADDER: TRANSITIONAL CELL CARCINOMA, Dose [Carcinogen]: 0.05% IN DRINKING WATER FOR 8 WK", "value": "1/13 (7.7%), 3/11 (27.3%), -254%, not significant"}
    ]},
    {"smiles": "C[C@]12C[C@H](O)[C@H]3[C@@H](CCC4=CC(=O)CC[C@@]43C)[C@@H]1CC[C@@H]2C(=O)CO", "values": [
      {"measurement": "tumour outcome (control, treated, inhibition, significance)", "setting": "1.5 MG 2/WK FOR 10 WK (STUDY DURATION: 65 WK), Route [Inhibitor]: INTRAMUSCULAR, Species: RAT, Strain/Sex: F344/MALE, Target Tissue: Type of Lesion: LIVER: HEPATOCELLULAR CARCINOMA, Dose [Carcinogen]: 100 UG 2/WK FOR 10 WK, Promoter: NONE USED", "value": "12/13 (92%), 12/23 (52%), 43%, p<0.02"}
    ]}
  ]
}
